Test system: plasma hemostasis
Experiment: Autocoagulation test (coagulating activity A) after intravenous administration
Format: in vivo, rabbit
Conditions: for effect on the coagulation activity according to the autocoagulation test: doses 15.0, 30.0, 60.0 mg/kg
Procedure: The investigations were performed on 72 rabbits of the “Chinchilla” breed with a mass of 2.5±0.3 kg, who were administered which solutions of compounds 2, 15, 21, 37 in doses of 15, 30 and 60 mg/kg intravenously. The experiments included the thrombin-test (series No. 7300) and the coagulability-test (series No. 5000) purchased from the scientific-and-production association (SPA) “Renam”, thromboplastin (series No. 240600) and calcium chloride purchased from the SPA “MedioLab”
The static parameters of the blood and plasma coagulation (partial activated thromboplastin time, thrombin time, maximum coagulation activity (test for auto coagulation) were determined using the Behnk Electronic coagulometer (Germany). The operating principle of this instrument is based on the fact that the formed blood clot breaks the contacts of the pulse counter in the flask-pin circuit, said pin permanently oscillating in a vertical plane. The moment of formation of the clot is registered by stopping the stop watch hand.
The measurements were effected at a constant temperature of 37° C. maintained by a temperature control unit.
Compounds 2, 15, 21, 37 according to the invention at a concentration of 15, 30 and 60 mg/kg were intravenously administered to the above experimental animals and their blood samples were taken off 15, 30, 60 and 120 minutes after the administration.
Added to 0.2 ml of plasma obtained by centrifuging citrate blood at 1500 rev/min within 10 minutes was a glycosylate-calcium mixture (2.0 ml 0.222% CaCl2+0.1 ml of investigated citrate blood) 4, 6, 8, 10 minutes after the preparation of this mixture and the time of coagulation in the sample was determined.
The obtained results in seconds were translated in factors of coagulating activity A in percent, which specify the state of both the coagulating and anticoagulating parts of the blood coagulating system. The results of the experiments are given in Table 7. • The effect of the compounds according to the invention on the values of coagulating activity A by the data of autocoagulation test with intravenous administration of the compounds to the rabbits

[1] = 15.0 mg/kg intravenously, after 15 minutes, control 85.6
[2] = 15.0 mg/kg intravenously, after 30 minutes, control 85.6
[3] = 15.0 mg/kg intravenously, after 60 minutes, control 85.6
[4] = 15.0 mg/kg intravenously, after 120 minutes, control 85.6
[5] = 30.0 mg/kg intravenously, after 15 minutes, control 70.0
[6] = 30.0 mg/kg intravenously, after 30 minutes, control 70.0
[7] = 30.0 mg/kg intravenously, after 60 minutes, control 70.0
[8] = 30.0 mg/kg intravenously, after 120 minutes, control 70.0
[9] = 60.0 mg/kg intravenously, after 15 minutes, control 65.9
[10] = 60.0 mg/kg intravenously, after 30 minutes, control 65.9
[11] = 60.0 mg/kg intravenously, after 60 minutes, control 65.9
[12] = 60.0 mg/kg intravenously, after 120 minutes, control 65.9

SMILES | coagulating activity A (autocoagulation test) [1] | coagulating activity A (autocoagulation test) [2] | coagulating activity A (autocoagulation test) [3] | coagulating activity A (autocoagulation test) [4] | coagulating activity A (autocoagulation test) [5] | coagulating activity A (autocoagulation test) [6] | coagulating activity A (autocoagulation test) [7] | coagulating activity A (autocoagulation test) [8] | coagulating activity A (autocoagulation test) [9] | coagulating activity A (autocoagulation test) [10] | coagulating activity A (autocoagulation test) [11] | coagulating activity A (autocoagulation test) [12] | effect on the coagulation activity according to the autocoagulation test
Nc1cnc2c(=O)n([C@@H]3O[C@H](CO)[C@@H](O)[C@H]3O)[nH]c(=O)c2n1.[Na] [Compound 21, sodium salt of 3-amino-7-(β-D-ribofuranosile)pyrazine[2,3-d]-6H-pyridazine-5,8-dione] | 81.4% | 101.3% | 86.5% | 97.4% | 97.2% | 69.1% | 103.7% | 71.0% | 71.9% | 62.1% | 63.7% | 66.2% | have no effect on the coagulation activity
Nc1cccc2c(=O)[nH][nH]c(=O)c12.[Na] [Compound 15, sodium salt of 5-amino-benzo[d]-3H-pyridazine-1,4-dione] | 82.3% | 103.0% | 89.0% | 101.2% | 100.3% | 68.4% | 106.6% | 70.6% | 74.4% | 63.2% | 64.4% | 66.5% | have no effect on the coagulation activity
O=c1[nH][nH]c(=O)c2c(Br)ncnc12.[K] [Compound 37, potassium salt of 4-bromine-pyrimido[4,5-D]-6H-pyridazine-5,8-dione] | 82.1% | 102.8% | 88.7% | 100.6% | 99.8% | 68.3% | 105.8% | 70.4% | 74.3% | 63.0% | 64.2% | 66.3% | have no effect on the coagulation activity
Nc1ccnc2c(=O)n([C@@H]3O[C@H](CO)[C@@H](O)[C@H]3O)[nH]c(=O)c12 [Compound 2, 4-amino-7-(β-D-ribofuranosile)pyrido[2,3-d]-6H-pyridazine-5,8-dione] | 80.2% | 100.0% | 87.4% | 98.0% | 98.4% | 71.2% | 104.2% | 70.9% | 72.3% | 60.8% | 62.5% | 65.7% | have no effect on the coagulation activity
